From patent US10508099B2, “Isoquinolin-3-yl carboxamides and preparation and use thereof” (Samumed, LLC, priority 2016, dated 2019)
Like-named read-outs stand apart in the source and are kept apart here.

How the values were obtained:
IL-6, BV-2 cells = assay: Secreted cytokines in Lipopolysaccharide-stimulated BV-2 mouse microglial cells: IL-6; assay type: cell-based; conditions: LPS 250 ng/mL for 5 h
Protocol: (§1) Representative compounds were screened using the cell-based assay procedure for secreted cytokines in a Lipopolysaccharide-stimulated mouse glial cell line described below.
(§2) BV-2 cells (mouse microglial cells) were cultured in 1:1 DMEM medium supplemented with 10% FBS, and 1% penicillin/streptomycin.
(§3) BV-2 cells are plated at 35,000 cells/well in a volume of 100 ul for at least 4 hours before compounds are added. DMSO-resuspended compounds were first dispensed in a 96 well plate and serial diluted from 10 μM to 4.6 nM final concentration in medium. Compounds were added to cells overnight. Two hundred fifty ng per milliliter of lipopolysaccharide (Escherichia coli 055:B5, SIGMA) was added for 5 h. Supernatant is removed and saved for further cytokine detection. The original plates with seeded cells were tested for cytotoxicity by measure of adenosine triphosphate (ATP) release by adding CellTiter-Glo® diluted 1:4 in distilled water (G7573, Promega) and transferring lysed cells to a completely black 96-well plate to be read with the Cytation3. Supernatant was then diluted 1:2 with a diluent from V-PLEX cytokine Kit and directly tested for the secreted cytokines TNFα, IL-6 and KC-GRO using electrochemiluminescence (Meso Scale Discovery). The standard curve for each cytokine was used to convert the electrochemiluminescent signal into pg of protein per mL.

[1] = tested on: α-smooth muscle actin (αSMA) in LL29 cells; assay: Fibrosis assay: TGF-β1 treated primary human fibroblasts from IPF patients (LL29), αSMA staining; assay type: cell-based; conditions: for EC50: LL29 cells treated with TGF-β1 (20 ng/mL), 4 days; for percent in parentheses beside EC50 >10 μM: LL29 cells treated with TGF-β1, given only where EC50 >10 μM (top concentration 10 μM)
[2] = tested on: Tau phosphorylation at Ser396 (pSer396) in SH-SY5Y cells; assay: Tau phosphorylation (pSer396) assay in SH-SY5Y cells, ELISA/western blot; assay type: cell-based, human
Protocol: Two days before treatment, cells were seeded onto 96 well plates at 5×10^4 cells/well.
Wells were visually checked for cell death or change in morphology and supernatants were tested for cytotoxicity by measurement of lactate dehydrogenase release (LDH, CytoToxOne kit, Promega) if necessary.
Cells were lysed with RIPA buffer complemented with phosphatase and protease inhibitors then lysates were spun down at 12,000 g for 10 min to remove any cellular debris. Lysates are then either directly tested for pSer396 by ELISA (Life Technology, Kit KHB7031) or loaded on NuPage Bis-Tris gels for western blot analysis. Colorimetric detection of ELISA signal is performed by Cytation3 plate reader (Biotek) and the chemiluminescence signal for HRP-linked antibodies used in western blotting is detected using a Carestream Image Station. The same pSer396 antibody is used for detection of pTau in both assays.

[3] = tested on: Wnt activity (Sp5-Luc reporter, TCF/LEF binding sites) in SW480 colon carcinoma cells; assay: Screening assay for Wnt activity: Sp5-Luc reporter gene assay in SW480 cells; assay type: cell-based, human; conditions: 36 to 48 hours
Protocol: The screening assay for Wnt activity is described as follows.
Following incubation, 15 μl of BriteLite Plus luminescence reagent (Perkin Elmer) was added to each well of the 384-well assay plates. The plates were placed on an orbital shaker for 2 min and then luminescence was quantified using the Envision (Perkin Elmer) plate reader.

DYRK1A kinase = DYRK1A kinase (Homo sapiens (Human), UniProt Q13627); assay: DYRK1A kinase assay (Ser/Thr 18 peptide Z-lyte FRET); assay type: biochemical
IL-6 in huPBMCs = assay: IL-6 inhibition in LPS-stimulated human peripheral blood mononuclear cells (HTRF); assay type: cell-based; conditions: for EC50: LPS-stimulated (50 ng/mL) huPBMCs, 22 hours, dose-response starting from 10 μM; for percent in parentheses beside EC50 >10 μM: LPS-stimulated huPBMCs, given only where EC50 >10 μM (top concentration 10 μM)
Protocol: After 22 hour incubation, a mixture of anti-IL6 XL665 and anti-IL-6 Cryptate diluted in reconstitution buffer (Catalog #62IL6PEC, Cisbio Inc., Bedford, Mass.) was added to each well. […] All samples were processed in duplicate. […] EC50 was determined using software generated by Dotmatics Limited (Windhill Bishops Stortford Herts, UK) using the Levenberg-Marquardt 4 parameter fitting procedure with finite different gradients.

TNFα, BV-2 cells = assay: Secreted cytokines in Lipopolysaccharide-stimulated BV-2 mouse microglial cells: TNFα; assay type: cell-based; conditions: LPS 250 ng/mL for 5 h
Protocol: as §1, §2, §3

KC-GRO, BV-2 cells = assay: Secreted cytokines in Lipopolysaccharide-stimulated BV-2 mouse microglial cells: KC-GRO; assay type: cell-based; conditions: LPS 250 ng/mL for 5 h
Protocol: as §1, §2, §3

[4] = tested on: SW480 colon carcinoma cells; assay: Cell viability assay (CellTiter-Glo) in SW480 cells; assay type: cell-based, human; conditions: for EC50: four days incubation
GSK3β kinase = GSK3β kinase (Homo sapiens (Human), UniProt P49841); assay: GSK3β kinase assay (Ser/Thr 09 peptide Z-lyte FRET); assay type: biochemical
GSK3β kinase, sequence (P49841 whole entry): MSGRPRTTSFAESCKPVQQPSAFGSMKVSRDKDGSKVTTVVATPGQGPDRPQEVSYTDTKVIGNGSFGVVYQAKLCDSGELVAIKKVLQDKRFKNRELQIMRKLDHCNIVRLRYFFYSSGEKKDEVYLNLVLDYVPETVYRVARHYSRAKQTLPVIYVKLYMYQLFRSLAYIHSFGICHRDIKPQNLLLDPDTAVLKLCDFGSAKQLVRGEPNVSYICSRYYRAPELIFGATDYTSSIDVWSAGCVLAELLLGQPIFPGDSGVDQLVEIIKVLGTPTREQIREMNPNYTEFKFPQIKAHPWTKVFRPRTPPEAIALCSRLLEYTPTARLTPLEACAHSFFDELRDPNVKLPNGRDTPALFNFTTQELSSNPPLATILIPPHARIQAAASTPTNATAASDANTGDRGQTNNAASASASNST

[5] = tested on: secreted β-amyloid 40 (Aβ40) peptide, SH-SY5Y-APP cells; assay: Secreted β-amyloid 40 peptide assay in APP overexpressing SH-SY5Y-APP cells; assay type: cell-based; conditions: Homo sapiens, overnight (16-18 hours)
Protocol: Representative compounds were screened using the cell-based assay procedure for secreted β-amyloid 40 (Aβ340) peptide in an APP overexpressing cell line described below.
SH-SY5Y cells were infected with lentivirus to overexpress amyloid (A4) beta precursor protein (APP), hereafter referred to as the SH-SY5Y-APP cells. […] Culture medium was changed 18 h post-transfection before a first batch of viral supernatant was then harvested at 42 h post-transfection. Culture medium was replenished once more before a second batch of viral supernatant was harvested 66 h post-transfection.
SH-SY5Y cells were seeded onto 6-well plates at 5.0×10^5 cells/well and incubated overnight at 37° C. Cells were then infected with viral supernatant at concentrations ranging from 10%→100% viral supernatant (diluted in Opti-MEM as appropriate), with 10 μg/mL Polybrene added for permeability (H9268, Sigma). […]
The cell assay procedure start 18 h prior to treatment, as SH-SY5Y-APP cells were seeded onto 96-well plates at 2.0×10^4 cells/well. […] The original plates with seeded cells were tested for cytotoxicity by measure of adenosine triphosphate (ATP) release by adding CellTiter-Glo® diluted 1:4 in distilled water (G7573, Promega) and transferring lysed cells to a completely black 96-well plate to be read with the Cytation3. […]

[6] = overnight (16-18 h) exposure, pSer396 Tau ELISA, read-out: pSer396 Tau EC50
[7] = DYRK1A kinase Z-lyte assay, 30 μM ATP, one hour at room temperature, text calls values IC50
[8] = GSK3β kinase Z-lyte assay, 46 μM ATP, one hour at room temperature, text calls values IC50
[9] = Homo sapiens, Fibroblast, 96 h, dose-response 10 μM to 0.94 nM
[10] = Homo sapiens, overnight (16-18 h) exposure, pSer396 Tau ELISA, read-out: pSer396 Tau EC50

**Q.** How did the EC50 (IL-6, BV-2 cells) turn out when “1-Isobutyl-N-(6-(5-methyl-1,3,4-oxadiazol-2-yl)isoquinolin-3-yl)piperidine-4-carboxamide [Compound 1020]” was run?
**A.** Its EC50 is 87 nM.

**Q.** And the EC50 ([1]; dose-response 10 μM to […])?
**A.** Its EC50 is > 10000 nM.

**Q.** And the “percent in parentheses beside EC50 >10 μM” value [1]?
**A.** Its value is 30.6%.

**Q.** And the EC50 [2, 6]?
**A.** Its EC50 is 49 nM.

**Q.** And the EC50 [3]?
**A.** Its EC50 is 1140 nM.

**Q.** And the EC50 (DYRK1A kinase; [7])?
**A.** The EC50 was 10.4 nM.

**Q.** And the EC50 (IL-6 in huPBMCs)?
**A.** The EC50 was 1180 nM.

**Q.** What about the EC50 (TNFα, BV-2 cells) of the same molecule?
**A.** The EC50 was 597 nM.

**Q.** What about the EC50 (KC-GRO, BV-2 cells) of the same molecule?
**A.** The EC50 was 708 nM.

**Q.** What about the EC50 [4] of the same molecule?
**A.** Its EC50 is 1030 nM.

**Q.** And the EC50 (GSK3β kinase; [8])?
**A.** The EC50 was 13 nM.

**Q.** `Cn1cncc1-c1ccc2cnc(NC(=O)C3C(C)(C)C3(C)C)cc2c1` [Compound 269, 2,2,3,3-Tetramethyl-N-[6-(3-methylimidazol-4-yl)-3-isoquinolyl]cyclopropanecarboxamide] was tested. Which IC50 [5] did it give?
**A.** The IC50 was > 10000 nM.

**Q.** How did the “percent in parentheses beside EC50 >10 μM” value (IL-6 in huPBMCs) turn out when `Cn1cc(-c2ccc3cnc(NC(=O)C4C(C)(C)C4(C)C)cc3c2)nn1` [Compound 277, 2,2,3,3-Tetramethyl-N-(6-(1-methyl-1H-1,2,3-triazol-4-yl)isoquinolin-3-yl) cyclopropane-1-carboxamide] was run?
**A.** Its value is 4.0%.

**Q.** How did the EC50 [1, 9] turn out when `C[C@H](F)CN1CCC(C(=O)Nc2cc3cc(-c4cnn(C)c4)ccc3cn2)CC1` [Compound 311, (S)-1-(2-Fluoropropyl)-N-(6-(1-methyl-1H-pyrazol-4-yl)isoquinolin-3-yl) piperidine-4-carboxamide] was run?
**A.** Its EC50 is 76 nM.

**Q.** And the EC50 [2, 10]?
**A.** Its EC50 is 163 nM.

**Q.** What about the EC50 ([3]; Homo sapiens) of the same molecule?
**A.** The EC50 was 578 nM.

**Q.** And the EC50 (IL-6 in huPBMCs; Homo sapiens, PBMC)?
**A.** Its EC50 is 396 nM.

**Q.** What about the EC50 ([4]; Homo sapiens, 96 h) of the same molecule?
**A.** The EC50 was 751 nM.

**Q.** For `Cn1cc(-c2ccc3cnc(NC(=O)CN4C5CCC4COC5)cc3c2)cn1` [Compound 347, 2-(3-Oxa-8-azabicyclo[3.2.1]octan-8-yl)-N-(6-(1-methyl-1H-pyrazol-4-yl)isoquinolin-3-yl)acetamide], which “percent in parentheses beside EC50 >10 μM” value (IL-6 in huPBMCs) is on record?
**A.** Its value is 4.5%.

**Q.** For `Cn1cc(-c2ccc3cnc(NC(=O)CN4C5CCC4CC5)cc3c2)nn1` [Compound 513, 2-(7-Azabicyclo[2.2.1]heptan-7-yl)-N-(6-(1-methyl-1H-1,2,3-triazol-4-yl)isoquinolin-3-yl)acetamide], which “percent in parentheses beside EC50 >10 μM” value (IL-6 in huPBMCs) is on record?
**A.** The value was 14.5%.

**Q.** With `Cc1nnc(-c2ccc3cnc(NC(=O)CN4C5CCC4CC5)cc3c2)s1` [Compound 959, 2-(7-Azabicyclo[2.2.1]heptan-7-yl)-N-(6-(5-methyl-1,3,4-thiadiazol-2-yl)isoquinolin-3-yl)acetamide] as the molecule, how does the “percent in parentheses beside EC50 >10 μM” value (IL-6 in huPBMCs) read?
**A.** The value was 6.1%.

**Q.** `Cc1nnc(-c2ccc3cnc(NC(=O)CN4C5CCC4COC5)cc3c2)s1` [Compound 962, 2-(3-Oxa-8-azabicyclo[3.2.1]octan-8-yl)-N-(6-(5-methyl-1,3,4-thiadiazol-2-yl)isoquinolin-3-yl)acetamide] was tested. Which “percent in parentheses beside EC50 >10 μM” value (IL-6 in huPBMCs) did it give?
**A.** Its value is 9.6%.

**Q.** With `CO[C@H]1CC[C@@H](C(=O)Nc2cc3cc(-c4nnc(C)s4)ccc3cn2)CC1` [Compound 1001, cis-4-Methoxy-N-(6-(5-methyl-1,3,4-thiadiazol-2-yl)isoquinolin-3-yl) cyclohexane-1-carboxamide] as the molecule, how does the inhibition at 10 µM (IL-6 in huPBMCs; Homo sapiens, PBMC, read-out: percent in parentheses beside EC50 >10 μM) read?
**A.** The inhibition at 10 µM was 49.7%.

**Q.** How did the “percent in parentheses beside EC50 >10 μM” value [1] turn out when `CC(C)CN1CCC[C@@H](C(=O)Nc2cc3cc(-c4cnn5c4CN(CCF)CC5)ccc3cn2)C1` [Compound 1002, (R)—N-(6-(5-(2-Fluoroethyl)-4,5,6,7-tetrahydropyrazolo[1,5-a]pyrazin-3-yl)isoquinolin-3-yl)-1-isobutylpiperidine-3-carboxamide] was run?
**A.** The value was 27.5%.

**Q.** With `CN1CCN(C[C@H]2CC[C@H](C(=O)Nc3cc4cc(-c5cnco5)ccc4cn3)CC2)CC1` [Compound 1007, trans-4-((4-methylpiperazin-1-yl)methyl)-N-(6-(oxazol-5-yl)isoquinolin-3-yl)cyclohexane-1-carboxamide] as the molecule, how does the EC50 [1, 9] read?
**A.** The EC50 was 942 nM.

**Q.** And the EC50 [2, 10]?
**A.** Its EC50 is 435 nM.

**Q.** What about the EC50 ([3]; Homo sapiens) of the same molecule?
**A.** The EC50 was 1130 nM.

**Q.** What about the EC50 (DYRK1A kinase; [7]) of the same molecule?
**A.** Its EC50 is 2.4 nM.

**Q.** And the EC50 (IL-6 in huPBMCs; Homo sapiens, PBMC)?
**A.** The EC50 was 1260 nM.

**Q.** What about the EC50 ([4]; Homo sapiens, 96 h) of the same molecule?
**A.** Its EC50 is 922 nM.

**Q.** And the EC50 (GSK3β kinase; [8])?
**A.** Its EC50 is 83 nM.

**Q.** With `Cc1nnc(-c2ccc3cnc(NC(=O)CN4CCCOCC4)cc3c2)s1` [Compound 1049, N-(6-(5-Methyl-1,3,4-thiadiazol-2-yl)isoquinolin-3-yl)-2-(1,4-oxazepan-4-yl) acetamide] as the molecule, how does the EC50 [2, 6] read?
**A.** Its EC50 is 319 nM.

**Q.** And the EC50 [3]?
**A.** The EC50 was 2540 nM.

**Q.** What about the EC50 (IL-6 in huPBMCs) of the same molecule?
**A.** Its EC50 is > 10000 nM.

**Q.** What about the “percent in parentheses beside EC50 >10 μM” value (IL-6 in huPBMCs) of the same molecule?
**A.** The value was 10.4%.

**Q.** What about the “percent inhibition at 10 μM” value ([4]; at 10 μM, given for EC50 of >10 μM) of the same molecule?
**A.** Its value is 31.3%.

**Q.** And the EC50 [4]?
**A.** Its EC50 is > 10000 nM.

**Q.** Which EC50 (IL-6, BV-2 cells; Mus musculus) does the source give for `Cn1cc(-c2ccc3cnc(NC(=O)C4CCN(CC(C)(C)O)CC4)cc3c2)nn1` [Compound 1070, 1-(2-Hydroxy-2-methylpropyl)-N-(6-(1-methyl-1H-1,2,3-triazol-4-yl)isoquinolin-3-yl)piperidine-4-carboxamide] here?
**A.** Its EC50 is 14 nM.

**Q.** And the EC50 [2, 10]?
**A.** The EC50 was 91 nM.

**Q.** And the EC50 ([3]; Homo sapiens)?
**A.** The EC50 was 738 nM.

**Q.** What about the EC50 (DYRK1A kinase) of the same molecule?
**A.** The EC50 was 7.6 nM.

**Q.** And the EC50 (IL-6 in huPBMCs; Homo sapiens, PBMC)?
**A.** The EC50 was 6470 nM.

**Q.** What about the EC50 ([4]; Homo sapiens, 96 h) of the same molecule?
**A.** The EC50 was 8390 nM.

**Q.** And the EC50 (GSK3β kinase)?
**A.** The EC50 was 16 nM.

**Q.** How did the “percent in parentheses beside EC50 >10 μM” value (IL-6 in huPBMCs) turn out when `Cn1cc(-c2ccc3cnc(NC(=O)C45CCN(CC4)CC5)cc3c2)cn1` [Compound 1071, N-(6-(1-Methyl-1H-pyrazol-4-yl)isoquinolin-3-yl)quinuclidine-4-carboxamide] was run?
**A.** The value was 8.8%.

**Q.** For `CCN1/C(=C/C(C)=O)Sc2ccc(O)cc21` [Indy, reference compound], which EC50 ([2]; control compounds, read-out: EC50 in the Tau assay) is on record?
**A.** The EC50 was > 10000 nM.
